# pEC50: −log10 of the molar value.
# Test system: HIV-1 single-round infectious reporter virus
# Assay: Single-round infectious HIV-1 luciferase reporter virus infection of HeLa CD4 cells
# Assay type: cell-based
# Settings: Human immunodeficiency virus 1, HeLa, 72 h
# Description: • Virus production—Human embryonic Kidney cell line, 293T, was propagated in Dulbecco's Modified Eagle Medium (Invitrogen, Carlsbad, Calif.) containing 10% fetal Bovine serum (FBS, Sigma, St. Louis, Mo.). • Virus infection—Human epithelial cell line, HeLa, expressing the HIV-1 receptor CD4 was propagated in Dulbecco's Modified Eagle Medium (Invitrogen, Carlsbad, Calif.) containing 10% fetal Bovine serum (FBS, Sigma, St. Louis, Mo.) and supplemented with 0.2 mg/mL GENETICIN® (Invitrogen, Carlsbad, Calif.). • Virus—Single-round infectious reporter virus was produced by co-transfecting human embryonic Kidney 293 cells with an HIV-1 envelope DNA expression vector and a proviral cDNA containing an envelope deletion mutation and the luciferase reporter gene inserted in place of HIV-1 nef sequences (Chen et al., Ref. 41). Transfections were performed using Lipofectamine Plus reagent as described by the manufacturer (Invitrogen, Carlsbad, Calif.). Experimental Procedure:
# 1. HeLa CD4 cells were plated in 96 well plates at a cell density of 1×10^4 cells per well in 100 μl Dulbecco's Modified Eagle Medium containing 10% fetal Bovine serum and incubated overnight.
# 2. Compound was added in a 2 μl dimethylsulfoxide solution, so that the final assay concentration would be ≦10 μM.
# 3. 100 μl of single-round infectious reporter virus in Dulbecco's Modified Eagle Medium was then added to the plated cells and compound at an approximate multiplicity of infection (MOI) of 0.01, resulting in a final volume of 200 μl per well.
# 4. Virally-infected cells were incubated at 37° C., in a CO2 incubator, and harvested 72 h after infection.
# 5. Viral infection was monitored by measuring luciferase expression from viral DNA in the infected cells using a luciferase reporter gene assay kit, as described by the manufacturer (Roche Molecular Biochemicals, Indianapolis, Ind.). Infected cell supernatants were removed and 50 μl of lysis buffer was added per well. After 15 minutes, 50 μl of freshly-reconstituted luciferase assay reagent was added per well. Luciferase activity was then quantified by measuring luminescence using a Wallac MICROBETA® scintillation counter.
# 6. The percent inhibition for each compound was calculated by quantifying the level of luciferase expression in cells infected in the presence of each compound as a percentage of that observed for cells infected in the absence of compound and subtracting such a determined value from 100.
# 7. An EC50 provides a method for comparing the antiviral potency of the compounds of this disclosure. The effective concentration for fifty percent inhibition (EC50) was calculated with the Microsoft Excel Xlfit curve fitting software. For each compound, curves were generated from percent inhibition calculated at 10 different concentrations by using a four parameter logistic model (model 205). Table 1 is the key for the data in Table 2.
row,SMILES,pEC50
1,COc1cnc(-n2cnc(C)n2)c2[nH]cc(C(=O)C(=O)N3CCc4c(ncn4-c4ccccc4)C3)c12 [Compound M1],10.15
2,COc1cnc(-n2ccnn2)c2[nH]cc(C(=O)C(=O)N3CCn4c(-c5ccccc5)cnc4C3)c12 [Compound D2],10.30
3,COc1cnc(-n2cnc(C)n2)c2[nH]cc(C(=O)C(=O)N3CCc4c(c(-c5ccccc5)nn4-c4ccccc4)C3)c12 [Compound K1],8.59
4,COc1cnc(-n2cnc(C)n2)c2[nH]cc(C(=O)C(=O)N3CCc4c(cnn4-c4cc(C)nc(C)n4)C3)c12 [Compound L2],6.48
5,O=C(C(=O)N1CCn2c(nnc2-c2ccccc2)C1)c1c[nH]c2cccc(F)c12 [Compound A1],6.66
6,O=C(C(=O)N1CCN2C(c3ccccc3)=NCC2C1)c1c[nH]c2c(-n3ccnn3)ncc(F)c12 (stereo not drawn) [Compound O1],7.89
7,COc1cnc(-n2cnc(C)n2)c2[nH]cc(C(=O)C(=O)N3CCn4c(cnc4-c4ccccc4)C3)c12 [Compound N1],10.22
8,COc1cnc(-n2cnc(C)n2)c2[nH]cc(C(=O)C(=O)N3CCc4c(cnn4-c4ccccc4)C3)c12 [Compound L3],10.52
9,COc1cnc(-n2cnc(C)n2)c2[nH]cc(C(=O)C(=O)N3CCn4c(nnc4-c4ccccc4)C3)c12 [Compound B1],9.02
10,COc1cnc(-n2cnc(C)n2)c2[nH]cc(C(=O)C(=O)N3CCn4c(-c5ccncc5)cnc4C3)c12 [Compound F6],7.87
11,COc1cnc(-n2cnc(C)n2)c2[nH]cc(C(=O)C(=O)N3CCn4c(nc(C)c4-c4ccccn4)C3)c12 [Compound H2],9.00
12,COc1cnc(-n2cnc(C)n2)c2[nH]cc(C(=O)C(=O)N3CCn4c(nnc4-c4ccccc4C)C3)c12 [Compound C1],7.93
13,COc1cnc(-n2cnc(C)n2)c2[nH]cc(C(=O)C(=O)N3CCn4c(nnc4-c4ccccc4C(N)=O)C3)c12 [Compound C4],< 6.30
14,COc1cnc(-n2cnc(C)n2)c2[nH]cc(C(=O)C(=O)N3CCn4c(nnc4-c4ccccc4O)C3)c12 [Compound C7],8.72
15,COc1cnc(-n2cnc(C)n2)c2[nH]cc(C(=O)C(=O)N3CCn4c(nc(C(F)(F)F)c4-c4ccccn4)C3)c12 [Compound I3],9.23
16,COc1cnc(-n2cnc(C)n2)c2[nH]cc(C(=O)C(=O)N3CCn4c(nnc4-c4ccccc4F)C3)c12 [Compound C2],9.54
17,COc1cnc(-n2cnc(C)n2)c2[nH]cc(C(=O)C(=O)N3CCn4c(-c5ccccc5C#N)cnc4C3)c12 [Compound F5],7.00
18,COc1cnc(-c2cc(CO)[nH]n2)c2[nH]cc(C(=O)C(=O)N3CCn4c(-c5ccccc5)cnc4C3)c12 [Compound J1],10.30

# Same assay, conditions: Human immunodeficiency virus 1, HeLa, 72 h, read-out: EC50 Group from Table 1
row,SMILES,pEC50
1,COc1cnc(-n2cnc(C)n2)c2[nH]cc(C(=O)C(=O)N3CCn4c(-c5ccc(O)cc5)cnc4C3)c12 [Compound F3],> 6.30
2,COc1cnc(-n2cnc(C)n2)c2[nH]cc(C(=O)C(=O)N3CCn4c(cnc4-c4ccc(F)cc4F)C3)c12 [Compound N2],> 6.30
3,COc1ccc(-c2cnc3n2CCN(C(=O)C(=O)c2c[nH]c4c(-n5cnc(C)n5)ncc(OC)c24)C3)cn1 [Compound F4],> 6.30
4,COc1cnc(-n2cnc(C)n2)c2[nH]cc(C(=O)C(=O)N3CCn4c(nnc4-c4ccccc4Cl)C3)c12 [Compound C6],> 6.30
5,COc1cnc(-n2cnc(C)n2)c2[nH]cc(C(=O)C(=O)N3CCn4c(nc(Cl)c4-c4ccccc4)C3)c12 [Compound G1],> 6.30
6,COc1cnc(-n2cnc(C)n2)c2[nH]cc(C(=O)C(=O)N3CCn4c(-c5cccc(O)c5)cnc4C3)c12 [Compound F1],> 6.30
7,COc1cnc(-n2cnc(C)n2)c2[nH]cc(C(=O)C(=O)N3CCn4c(-c5cccnc5)cnc4C3)c12 [Compound F2],> 6.30
8,COc1cnc(-n2cnc(C)n2)c2[nH]cc(C(=O)C(=O)N3CCn4c(nc(C(F)(F)F)c4-c4ccccc4)C3)c12 [Compound I1],> 6.30
9,COc1cnc(-n2cnc(C)n2)c2[nH]cc(C(=O)C(=O)N3CCc4c(cnn4-c4cnccn4)C3)c12 [Compound L5],> 6.30
10,O=C(C(=O)N1CCn2c(nc(C(F)(F)F)c2-c2ccccc2)C1)c1c[nH]c2c(-n3ccnn3)ncc(F)c12 [Compound I2],> 6.30
11,COc1cnc(-n2ccnn2)c2[nH]cc(C(=O)C(=O)N3CCn4c(nnc4-c4ccccc4)C3)c12 [Compound B2],> 6.30
12,COc1cnc(-n2cnc(C)n2)c2[nH]cc(C(=O)C(=O)N3CCn4c(-c5ccccc5)cnc4C3)c12 [Compound D1],> 6.30
13,COc1cnc(-n2cnc(C)n2)c2[nH]cc(C(=O)C(=O)N3CCn4c(nc(Br)c4-c4ccccc4)C3)c12 [Compound G2],> 6.30
14,COc1nc2n(c1-c1ccccc1)CCN(C(=O)C(=O)c1c[nH]c3c(-n4cnc(C)n4)ncc(OC)c13)C2 [Compound H1a],> 6.30
15,COc1cnc(-c2cncnc2)c2[nH]cc(C(=O)C(=O)N3CCn4c(-c5ccccc5)cnc4C3)c12 [Compound D3],> 6.30
16,COc1ccccc1-c1nnc2n1CCN(C(=O)C(=O)c1c[nH]c3c(-n4cnc(C)n4)ncc(OC)c13)C2 [Compound C5],> 6.30
17,COc1cnc(-c2cc(C(C)(C)O)[nH]n2)c2[nH]cc(C(=O)C(=O)N3CCn4c(-c5ccccc5)cnc4C3)c12 [Compound J2],> 6.30
18,COc1cnc(-n2cnc(C)n2)c2[nH]cc(C(=O)C(=O)N3CCn4c(nnc4-c4cccc(C)c4)C3)c12 [Compound C8],> 6.30
19,O=C(C(=O)N1CCn2c(nnc2-c2ccccc2)C1)c1c[nH]c2c(-n3ccnn3)ncc(F)c12 [Compound B3],> 6.30
20,COCc1ncn(-c2ncc(OC)c3c(C(=O)C(=O)N4CCn5c(nnc5-c5ccccc5)C4)c[nH]c23)n1 [Compound B4],> 6.30
21,COc1cnc(-n2cnc(C)n2)c2[nH]cc(C(=O)C(=O)N3CCn4c(nnc4-c4ccccn4)C3)c12 [Compound C3],> 6.30
22,COc1cnc(-n2cnc(C)n2)c2[nH]cc(C(=O)C(=O)N3CCc4c(cnn4-c4ncccn4)C3)c12 [Compound L1],> 6.30
23,COc1nc2n(c1-c1ccccn1)CCN(C(=O)C(=O)c1c[nH]c3c(-n4cnc(C)n4)ncc(OC)c13)C2 [Compound H1b],> 6.30
24,COc1cnc(-n2cnc(C)n2)c2[nH]cc(C(=O)C(=O)N3CCN4C(c5ccccn5)=NCC4C3)c12 (stereo not drawn) [Compound O2],> 6.30
25,COc1cnc(-n2cnc(C)n2)c2[nH]cc(C(=O)C(=O)N3CCc4c(ncn4-c4ccccn4)C3)c12 [Compound M2],> 6.30
26,COc1cnc(-n2cnc(C)n2)c2[nH]cc(C(=O)C(=O)N3CCn4c(-c5ccccn5)cnc4C3)c12 [Compound E1],> 6.30
27,COc1cnc(-n2cnc(C)n2)c2[nH]cc(C(=O)C(=O)N3CCc4c(cnn4-c4ccccn4)C3)c12 [Compound L4],> 6.30

# Reference: patent publication US7960406B2, “Diketo substituted pyrrolo[2,3-c] pyridines” (priority 2008, dated 2011)
